Laboratory results reported in publication PMC4992440 (ACS chemical biology, 2016).
Like-named read-outs stand apart in the source and are kept apart here.

What was measured:
[1] = PBS solubility; format: physicochemical
[2] = system: LPS-stimulated C57BL/6 mice; format: in vivo; details: mouse
[3] = system: TNFα, IL-6, IL-12p40, IL-1β in BMDCs; assay: Inflammatory cytokine production by Zymosan A-stimulated BMDCs; format: cell-based, mouse; details: 1 μM 24 hr, Zymosan A 18 hr
[4] = system: C57BL/6 mice; assay: Daily dosing for 1 week in mice: weight, serum triglycerides, adiponectin; format: in vivo, mouse; details: wild-type mice, daily for 1 week
[5] = Pharmacokinetics after IP administration in mice; format: in vivo; details: mouse
[6] = system: Il10 and Nurr77 transcripts in BMDCs; assay: CREB target gene transcripts in LPS-stimulated BMDCs; format: cell-based, mouse; details: 1 μM, 24 hr pre-treatment
[7] = system: p-HDAC5 (Ser259) in BMDMs; assay: HDAC5 Ser259 phosphorylation in LPS-stimulated BMDMs; format: cell-based, mouse; details: 1 μM, 6 hr pre-incubation, LPS 30 min
[8] = system: IL-10 production in Zymosan A-stimulated BMDCs; assay: IL-10 production by Zymosan A-stimulated BMDCs; format: cell-based, mouse; details: read-out: IL-10 EC50, mean ± SD from ≥ 2 independent experiments
[9] = system: BMDCs; assay: Cellular cytotoxicity in Zymosan A-stimulated BMDCs; format: cell-based, mouse
[10] = mouse, microsomes
[11] = Serum / plasma protein binding; format: in vitro ADME, mouse
[12] = Mouse liver microsome stability; details: mouse liver microsomes; 1 independent experiment

COc1ccc(N2C(=O)N(c3c(C)cccc3Cl)Cc3cnc(Nc4ccc(C5CCN(C)CC5)cc4OC)nc32)nc1 [Compound 5]
PBS solubility [1]: 428 ± 11 µM
LPS-induced increase in Il6 mRNA in colon ([2]; IP 20 mg/Kg): not affected
serum IL-6 levels ([2]; IP 20 mg/Kg, LPS): moderately decreased
increase of serum IL-10 levels ([2]; IP 20 mg/Kg, LPS 1 hour): > 2 fold
Tnf transcript in colon ([2]; IP 20 mg/Kg, throughout the experiment): reduced
phosphorylation of HDAC5 at Ser259 in total splenic leukocytes ([2]; IP 5 – 50 mg/Kg, 15 min before LPS 1 hour): dose dependently decreased
abundance of TNFα in serum ([2]; IP, beginning at 5 mg/Kg, LPS 1 hour): dose-dependently reduced
phosphorylation of HDAC5 at Ser259 in total splenic leukocytes, immunoblotting ([2]; IP, beginning at the 20 mg/Kg dose): below the limit of detection
IL-1β release [3]: only modestly enhanced
IL-6 production [3]: suppressed
IL-12p40 production [3]: suppressed
TNFα production [3]: suppressed
tolerability of daily injections [4]: well tolerated
changes in viability, activity or grooming ([5]; IP 20 mg/Kg, 24 hour treatment period): no obvious changes
clearance t1/2 ([5]; IP, 20 mg/Kg, serum): > 7 h
Il10 transcript level [6]: increased
Nurr77 transcript level [6]: increased
LPS stimulated phosphorylation of HDAC5 at Ser259 [7]: reduced
EC50 [8]: 460 ± 110 nM
concentrations at which non-toxic [9]: ≤ 10 µM
MLM t1/2 [10]: >2 h

COc1ccc(N(C(=O)Nc2c(C)cccc2C)c2cc(Nc3ccc(N4CCN(C)CC4)cc3)ncn2)c(OC)c1 [Compound 1, reference compound]
serum bound [11]: > 99%
MLM t1/2 [12]: 0.183 h
LPS stimulated phosphorylation of HDAC5 at Ser259 [7]: reduces
EC50 [8]: 220 ± 90 nM

COc1ccc(N2C(=O)N(c3c(C)cccc3Cl)Cc3cnc(Nc4ccc(N5CCN(C)CC5)cc4)nc32)nc1 [Compound 3]
MLM t1/2 [12]: 0.45 h
EC50 [8]: 11 ± 1 nM
toxicity in BMDCs (in words) [9]: significantly elevated toxicity
